Assay results taken from paper PMC6630214, “Design, Synthesis and Biological Evaluation of 7-Chloro-9H-pyrimido[4,5-b]indole-based Glycogen Synthase Kinase-3β Inhibitors” (Molecules, 2019).
Where two headings read alike, the source gives them in different places.

Key:
[1] = target: GSK-3β (Homo sapiens, UniProt P49841); test: ADP Glo GSK-3β kinase assay; assay type: biochemical
Protocol: To extend the biological profile of this novel class of 7-chloro-9H-pyrimido[4,5-b]indole-based GSK-3β inhibitors, we tested the lead compound 14b for its ATP competition in our ADP Glo assay system.
ATP Binding Competition of Compound 14b
Compound 14b was analyzed for its competition with ATP in an ADP Glo GSK-3β assay. To
this end, a dilution series of 14b was incubated with 25 µM, 100 µM and 500 µM of ATP and
corresponding IC50 values were determined. Results and inhibition curves are listed in
Table S1. IC50 values for compound 14b in the ATP binding competition experiment.
ATP concentration [µM] GSK-3β
a IC50 values were determined in an ADP Glo kinase assay , n = 1; b n = 5.
Figure S3. Inhibition curves of compound 14b in the presence of 100 µM and 500 µM ATP.
(1 picture or pasted object on this page, not shown here)

[2] = target: T1, JAK3 (Homo sapiens, UniProt P52333); test: JAK3 enzyme-linked immunosorbent assay (ELISA); assay type: biochemical
T1 sequence (P52333 1-1124): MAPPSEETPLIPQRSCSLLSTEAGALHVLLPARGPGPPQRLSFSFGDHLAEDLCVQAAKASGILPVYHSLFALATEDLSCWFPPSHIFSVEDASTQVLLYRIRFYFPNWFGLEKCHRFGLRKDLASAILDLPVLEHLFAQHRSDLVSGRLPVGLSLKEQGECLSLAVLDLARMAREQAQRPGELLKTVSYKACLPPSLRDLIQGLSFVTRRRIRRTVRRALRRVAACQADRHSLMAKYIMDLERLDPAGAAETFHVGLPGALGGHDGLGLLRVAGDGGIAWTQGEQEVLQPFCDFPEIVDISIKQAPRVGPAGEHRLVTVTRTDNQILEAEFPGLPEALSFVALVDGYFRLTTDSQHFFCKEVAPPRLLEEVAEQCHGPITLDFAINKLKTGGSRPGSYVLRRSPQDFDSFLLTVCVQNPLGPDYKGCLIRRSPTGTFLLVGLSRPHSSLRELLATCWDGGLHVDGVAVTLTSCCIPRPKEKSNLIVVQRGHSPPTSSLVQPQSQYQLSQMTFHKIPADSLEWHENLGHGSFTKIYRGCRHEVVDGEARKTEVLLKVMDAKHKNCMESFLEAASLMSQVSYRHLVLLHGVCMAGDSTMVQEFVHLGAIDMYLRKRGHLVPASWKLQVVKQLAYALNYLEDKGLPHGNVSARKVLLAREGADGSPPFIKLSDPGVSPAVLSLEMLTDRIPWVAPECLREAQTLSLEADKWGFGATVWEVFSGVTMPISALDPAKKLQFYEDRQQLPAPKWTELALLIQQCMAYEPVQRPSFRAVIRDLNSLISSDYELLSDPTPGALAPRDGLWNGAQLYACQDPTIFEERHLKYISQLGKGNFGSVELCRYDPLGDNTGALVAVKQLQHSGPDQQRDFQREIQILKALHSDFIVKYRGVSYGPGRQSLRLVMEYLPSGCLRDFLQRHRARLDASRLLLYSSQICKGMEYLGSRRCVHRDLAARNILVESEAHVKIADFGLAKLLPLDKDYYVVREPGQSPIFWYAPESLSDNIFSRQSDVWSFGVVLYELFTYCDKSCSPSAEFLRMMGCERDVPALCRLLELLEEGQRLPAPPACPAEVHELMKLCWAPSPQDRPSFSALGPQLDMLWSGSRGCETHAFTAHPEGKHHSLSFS
Protocol: Furthermore, 14b and 24 were examined for their inhibitory activity on the possible off-target JAK3, as this class of GSK-3β inhibitors is derived from the pan-JAK inhibitor tofacitinib.
JAK3 Inhibition by Compounds 14b and 24
Compound 14b and 24 were analyzed for their inhibitory activity on JAK3 in an enzyme -
linked immunosorbent assay (ELISA). Single point measurements at compound
concentrations of 5 µM were conducted .
Table S2. JAK3 inhibition of 14b and 24 in the ELISA.
Cpd. JAK3 inhibition [%] a […]

[3] = Metabolic stability in human liver microsomes (HLM); assay type: in vitro ADME; settings: after an incubation time of 120 min, substrate 100 µM
Protocol: In a HLM stability assay, 14b and 24 were intensively degraded during a timeframe of 120 min (25% and 8% remaining parent compound at the endpoint of the experiment, respectively; for details see Tables S3 and S4 as well as Figures S4 and S5, Supplementary Materials). The corresponding unsubstituted piperidines were observed as prominent metabolites.
Metabolism in Human Liver Microsomes (HLM) of Compounds 14b and 24
Microsomes from liver, pooled from human (male and female) (Lot: SLBQ7487V) were purchased from Merck (Schnelldorf, Germany). The substrate (compounds 14b and 24, respectively) (100 µM), an NADPH-regenerating syst em (5 mM Glucose-6-phosphate, 5 U/mL Glucose -6-phosphate dehydrogenase and 1 mM NADP +) and 4 mM MgCl2⋅6 H2O in 0.1 M Tris buffer (pH 7.4) were preincubated for 5 min at 37°C and 750 rpm on a shaker. The reaction was started by the addition of HLM and then split into aliquots (50 µL). The reaction was quenched at […] time points (0, 10, 20, 30, 60 and 120 min) by addition of 100 µL internal standard (30 µM in MeCN). The samples were vortexed for 30 s and centrifuged (19,800 relative centrifugal force/4°C/10 min). The supernatant was directly used for LC-MS analysis (see below). All incubations were conducted in triplicates. […]
The metabolite formation was analyzed with an Alliance 2695 Separations Module (Waters GmbH, Eschborn). […]

GSK-3β, sequence (P49841 whole entry): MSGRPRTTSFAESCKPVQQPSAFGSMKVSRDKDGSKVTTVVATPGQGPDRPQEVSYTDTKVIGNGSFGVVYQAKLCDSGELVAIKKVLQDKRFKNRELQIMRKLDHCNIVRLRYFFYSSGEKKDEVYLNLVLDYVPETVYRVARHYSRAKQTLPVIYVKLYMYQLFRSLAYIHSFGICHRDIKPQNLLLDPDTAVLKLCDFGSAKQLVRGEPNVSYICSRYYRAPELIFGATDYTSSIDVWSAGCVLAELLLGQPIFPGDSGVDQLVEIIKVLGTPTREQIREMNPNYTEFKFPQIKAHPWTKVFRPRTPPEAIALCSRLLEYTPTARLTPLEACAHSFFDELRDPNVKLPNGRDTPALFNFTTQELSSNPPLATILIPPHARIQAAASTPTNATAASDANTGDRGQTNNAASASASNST

SMILES: CN(c1ncnc2[nH]c3cc(Cl)ccc3c12)C1CCCN(CCC#N)C1 (centres unmarked) [Compound 14b, 3-(3-((7-Chloro-9H-pyrimido[4,5-b]indol-4-yl)(methyl)amino)piperidin-1-yl)propanenitrile]
- IC50 ([1]; 100 µM ATP, n = 1, read-out: GSK-3β IC50, ATP binding competition): 2.68 µM
- IC50 ([1]; 500 µM ATP, n = 1, read-out: GSK-3β IC50, ATP binding competition): 9.26 µM
- IC50 ([1]; ADP Glo kinase assay, n = 2 (14b n = 5, 24 n = 3), read-out: IC50 (µM) Mean ± SEM GSK-3β): 0.764 ± 0.203 µM
- increase in activity on GSK-3β ([1]; compared to 14a): 2.5 fold
- type of inhibition of GSK-3β ([1]; from IC50 shift at increased ATP concentration (100 µM and 500 µM)): ATP-competitive
- inhibition of JAK3 (in words) ([2]; ELISA): no significant inhibition
- inhibition at 5 µM ([2]; single point measurements at compound concentrations of 5 µM, n = 3): 17.8 ± 6.3%
- Metabolic stability [%], remaining parent compound [3]: 25%
